# Source: patent US5672472A, “Synthetic unrandomization of oligomer fragments” (ISIS Pharmaceuticals, Inc., priority 1994, dated 1997)
# Tests used:
# [1] = system: protein CD4; experiment: Gel shift of 5' end labeled oligonucleotide groups with CD4; type: binding; conditions: for binding to the protein CD4: 100 pmoles labeled group, FIG. 7
# [2] = system: ras 47-mer stem/loop RNA; experiment: Gel-shift assay of random 2'-O-methyl oligonucleotide sets binding to ras RNA target; conditions: for Kd: Table 3, 2'-O-methyl sets, ras RNA about 10 pM, 100 mM NaCl, 10 mM MgCl2, 4 h at 37° C., read-out: KD (set KD); for binding in gel shift (FIG. 2B) / shift of the target: Round 2; for binding in gel shift (FIG. 2B): sets at 1 and 10 μM
# [3] = system: target protein; experiment: Gel shift assay of anion-exchange subfractions of oligonucleotide sets; type: binding; conditions: first round; sets subfractionated by charge
# Procedure: An oligonucleotide analog group comprising four sets of oligonucleotides eight positions in length is prepared in accordance with Examples 3 and 6 wherein each of the sets has a different one of adenins, guanine, thymidine and cytosine in the 5th position, and the rest of the positions are randomized to provide the group: NNNNANNN, NNNNGNNN, NNNNTNNN, and NNNNCNNN. Each set is subfractionated by charge with an anion exchange column. Each subfraction is tested for affinity for the target protein by gel shift assay. […] In a further round, the 5th position is fixed to contain an adenins in the 5th position, and each set has a different nucleotide in the fourth position to provide the group NNNAANNN, NNNTANNN, NNNGANNN, and NNNCANNN. The sets are again subfractionated by charge with an anion exchange column and the subfractions are tested for affinity for the target protein by gel shift assay. The steps are repeated until each position is determined.
# [4] = system: HIV tat protein; experiment: Binding of oligonucleotide groups to HIV tat protein; conditions: Example 27
sequence,measurement,setting,value
NNNNTNNNN [2'-O-methyl set],binding to the protein CD4,[1],No binding
NNNNGNNNN [NNNNXNNNN X=G],binding in gel shift (FIG. 2A),"[2]; Round 1, sets at 5, 10, 50 and 100 μM",no binding
same,Kd,[2],> 100 µM
NNCNCNCNN [NNXNCNCNN X=C],shift of the target (FIG. 2C),"[2]; Round 3, sets at 0.1 and 1 μM",greater than 50%
same,Kd,[2],0.5 µM
NNNNCNNNN [NNNNXNNNN X=C],shift of the target to the bound form,"[2]; Round 1, 50 uM oligonucleotide concentration",more than 50%
same,Kd,[2],10 µM
NNNNCNANN [NNNNCNXNN X=A],binding in gel shift (FIG. 2B),[2],minimal binding
same,Kd,[2],> 10 µM
NNNNCNGNN [NNNNCNXNN X=G],binding in gel shift (FIG. 2B),[2],minimal binding
same,Kd,[2],> 10 µM
NNNNANNN [Set A],binding affinity of subfraction for the target protein,[3],highest binding affinity
NNNNTNNNN,binding to the protein CD4,[1]; listed as phosphorothioate oligonucleotide,binding of the oligonucleotide to the protein
same,binding affinity for CD4 (FIG. 7 legend),"[1]; 100 pmoles, visible at 0.5 and 1 μG CD4, presence and absence of dIdC",exhibited binding
same,binding against the tat protein,[4],Binding has been observed
NNNNANNNN [NNNNXNNNN X=A],shift of ras target (FIG. 2A),"[2]; Round 1, 100 uM",slight shift
same,Kd,[2],22 µM
NNNNCNCNN [NNNNCNXNN X=C],shift of the target,[2]; 1 μM,> 25%
same,shift of the target,[2]; 10 μM,about 50%
same,Kd,[2],4 µM
